Assay [1] has as its target T1, PDZ-domain polypeptide (GST/PDZ fusion protein) (Homo sapiens, UniProt Q12923).
T1 construct: made in house; host or cells: E. coli (DH5alpha, BL21 or JM109)
In words: Apparent affinity (Kd) by titration of PL peptide in the G assay. Type of assay: binding. Put shortly:
(§1)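 A fixed concentration of GST/PDZ fusion protein, 5 ug/ml by default, was mixed in solution with increasing labeled PL peptide (e.g. 0.1 uM-1 mM). Reaction times ranged from 10 minutes to 2 days at 4-37° C. Complexes were separated from free peptide and detected via the label as in the G assay, apparent affinity coming from the saturating concentration.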

Assay [2] addresses T2, PDZ-domain polypeptide (GST/PDZ fusion protein) (Homo sapiens, UniProt Q5TCQ9).
T2 construct: made in house; host or cells: E. coli (DH5alpha, BL21 or JM109)
T2 sequence (Q5TCQ9 1-1481): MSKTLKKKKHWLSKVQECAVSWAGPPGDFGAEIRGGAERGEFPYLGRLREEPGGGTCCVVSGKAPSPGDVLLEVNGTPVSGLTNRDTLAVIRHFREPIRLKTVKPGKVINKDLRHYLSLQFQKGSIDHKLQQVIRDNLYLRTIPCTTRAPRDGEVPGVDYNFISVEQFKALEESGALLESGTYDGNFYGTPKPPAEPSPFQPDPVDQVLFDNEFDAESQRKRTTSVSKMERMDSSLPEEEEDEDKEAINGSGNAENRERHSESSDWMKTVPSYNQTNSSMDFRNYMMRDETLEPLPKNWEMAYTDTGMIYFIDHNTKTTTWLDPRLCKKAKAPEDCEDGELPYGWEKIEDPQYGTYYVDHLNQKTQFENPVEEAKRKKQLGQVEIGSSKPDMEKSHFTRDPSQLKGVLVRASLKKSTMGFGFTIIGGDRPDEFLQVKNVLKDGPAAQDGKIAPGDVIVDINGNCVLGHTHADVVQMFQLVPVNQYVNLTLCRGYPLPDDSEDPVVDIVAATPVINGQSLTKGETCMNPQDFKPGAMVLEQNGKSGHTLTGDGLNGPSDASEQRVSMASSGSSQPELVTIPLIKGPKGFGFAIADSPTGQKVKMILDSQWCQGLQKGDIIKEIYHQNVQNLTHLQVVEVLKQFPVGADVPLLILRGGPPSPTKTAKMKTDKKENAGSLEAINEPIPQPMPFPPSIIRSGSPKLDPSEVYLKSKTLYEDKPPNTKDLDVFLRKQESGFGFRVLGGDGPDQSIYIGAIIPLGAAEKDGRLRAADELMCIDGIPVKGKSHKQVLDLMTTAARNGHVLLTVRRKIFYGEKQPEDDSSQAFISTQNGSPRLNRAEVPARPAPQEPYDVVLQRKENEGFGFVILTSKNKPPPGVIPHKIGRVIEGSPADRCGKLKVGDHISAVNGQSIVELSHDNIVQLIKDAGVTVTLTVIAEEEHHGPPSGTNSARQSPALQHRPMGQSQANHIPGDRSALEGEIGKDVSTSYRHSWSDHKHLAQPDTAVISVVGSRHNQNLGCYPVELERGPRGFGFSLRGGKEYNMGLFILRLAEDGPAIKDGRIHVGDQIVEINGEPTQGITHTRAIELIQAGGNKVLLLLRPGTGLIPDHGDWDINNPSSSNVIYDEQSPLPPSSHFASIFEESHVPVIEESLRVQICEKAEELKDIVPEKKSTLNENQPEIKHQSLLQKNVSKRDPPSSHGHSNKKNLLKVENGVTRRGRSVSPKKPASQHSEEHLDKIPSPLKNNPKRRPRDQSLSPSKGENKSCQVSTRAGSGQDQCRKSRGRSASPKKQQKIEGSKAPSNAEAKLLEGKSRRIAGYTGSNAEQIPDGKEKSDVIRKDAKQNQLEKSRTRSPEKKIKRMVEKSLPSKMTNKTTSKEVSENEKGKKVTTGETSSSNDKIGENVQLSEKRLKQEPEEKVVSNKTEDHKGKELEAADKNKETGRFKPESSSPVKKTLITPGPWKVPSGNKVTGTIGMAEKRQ
Described as above. The format is binding. Put shortly: as §1

Like-named read-outs stand apart in the source and are kept apart here. Peptide text beside a SMILES is read from it. * marks the point of attachment. Biotin = O=C1N[C@H]2[C@H](CS[C@H]2CCCCC(=O)*)N1

T1 sequence (Q12923 whole entry, the tested form may be a part): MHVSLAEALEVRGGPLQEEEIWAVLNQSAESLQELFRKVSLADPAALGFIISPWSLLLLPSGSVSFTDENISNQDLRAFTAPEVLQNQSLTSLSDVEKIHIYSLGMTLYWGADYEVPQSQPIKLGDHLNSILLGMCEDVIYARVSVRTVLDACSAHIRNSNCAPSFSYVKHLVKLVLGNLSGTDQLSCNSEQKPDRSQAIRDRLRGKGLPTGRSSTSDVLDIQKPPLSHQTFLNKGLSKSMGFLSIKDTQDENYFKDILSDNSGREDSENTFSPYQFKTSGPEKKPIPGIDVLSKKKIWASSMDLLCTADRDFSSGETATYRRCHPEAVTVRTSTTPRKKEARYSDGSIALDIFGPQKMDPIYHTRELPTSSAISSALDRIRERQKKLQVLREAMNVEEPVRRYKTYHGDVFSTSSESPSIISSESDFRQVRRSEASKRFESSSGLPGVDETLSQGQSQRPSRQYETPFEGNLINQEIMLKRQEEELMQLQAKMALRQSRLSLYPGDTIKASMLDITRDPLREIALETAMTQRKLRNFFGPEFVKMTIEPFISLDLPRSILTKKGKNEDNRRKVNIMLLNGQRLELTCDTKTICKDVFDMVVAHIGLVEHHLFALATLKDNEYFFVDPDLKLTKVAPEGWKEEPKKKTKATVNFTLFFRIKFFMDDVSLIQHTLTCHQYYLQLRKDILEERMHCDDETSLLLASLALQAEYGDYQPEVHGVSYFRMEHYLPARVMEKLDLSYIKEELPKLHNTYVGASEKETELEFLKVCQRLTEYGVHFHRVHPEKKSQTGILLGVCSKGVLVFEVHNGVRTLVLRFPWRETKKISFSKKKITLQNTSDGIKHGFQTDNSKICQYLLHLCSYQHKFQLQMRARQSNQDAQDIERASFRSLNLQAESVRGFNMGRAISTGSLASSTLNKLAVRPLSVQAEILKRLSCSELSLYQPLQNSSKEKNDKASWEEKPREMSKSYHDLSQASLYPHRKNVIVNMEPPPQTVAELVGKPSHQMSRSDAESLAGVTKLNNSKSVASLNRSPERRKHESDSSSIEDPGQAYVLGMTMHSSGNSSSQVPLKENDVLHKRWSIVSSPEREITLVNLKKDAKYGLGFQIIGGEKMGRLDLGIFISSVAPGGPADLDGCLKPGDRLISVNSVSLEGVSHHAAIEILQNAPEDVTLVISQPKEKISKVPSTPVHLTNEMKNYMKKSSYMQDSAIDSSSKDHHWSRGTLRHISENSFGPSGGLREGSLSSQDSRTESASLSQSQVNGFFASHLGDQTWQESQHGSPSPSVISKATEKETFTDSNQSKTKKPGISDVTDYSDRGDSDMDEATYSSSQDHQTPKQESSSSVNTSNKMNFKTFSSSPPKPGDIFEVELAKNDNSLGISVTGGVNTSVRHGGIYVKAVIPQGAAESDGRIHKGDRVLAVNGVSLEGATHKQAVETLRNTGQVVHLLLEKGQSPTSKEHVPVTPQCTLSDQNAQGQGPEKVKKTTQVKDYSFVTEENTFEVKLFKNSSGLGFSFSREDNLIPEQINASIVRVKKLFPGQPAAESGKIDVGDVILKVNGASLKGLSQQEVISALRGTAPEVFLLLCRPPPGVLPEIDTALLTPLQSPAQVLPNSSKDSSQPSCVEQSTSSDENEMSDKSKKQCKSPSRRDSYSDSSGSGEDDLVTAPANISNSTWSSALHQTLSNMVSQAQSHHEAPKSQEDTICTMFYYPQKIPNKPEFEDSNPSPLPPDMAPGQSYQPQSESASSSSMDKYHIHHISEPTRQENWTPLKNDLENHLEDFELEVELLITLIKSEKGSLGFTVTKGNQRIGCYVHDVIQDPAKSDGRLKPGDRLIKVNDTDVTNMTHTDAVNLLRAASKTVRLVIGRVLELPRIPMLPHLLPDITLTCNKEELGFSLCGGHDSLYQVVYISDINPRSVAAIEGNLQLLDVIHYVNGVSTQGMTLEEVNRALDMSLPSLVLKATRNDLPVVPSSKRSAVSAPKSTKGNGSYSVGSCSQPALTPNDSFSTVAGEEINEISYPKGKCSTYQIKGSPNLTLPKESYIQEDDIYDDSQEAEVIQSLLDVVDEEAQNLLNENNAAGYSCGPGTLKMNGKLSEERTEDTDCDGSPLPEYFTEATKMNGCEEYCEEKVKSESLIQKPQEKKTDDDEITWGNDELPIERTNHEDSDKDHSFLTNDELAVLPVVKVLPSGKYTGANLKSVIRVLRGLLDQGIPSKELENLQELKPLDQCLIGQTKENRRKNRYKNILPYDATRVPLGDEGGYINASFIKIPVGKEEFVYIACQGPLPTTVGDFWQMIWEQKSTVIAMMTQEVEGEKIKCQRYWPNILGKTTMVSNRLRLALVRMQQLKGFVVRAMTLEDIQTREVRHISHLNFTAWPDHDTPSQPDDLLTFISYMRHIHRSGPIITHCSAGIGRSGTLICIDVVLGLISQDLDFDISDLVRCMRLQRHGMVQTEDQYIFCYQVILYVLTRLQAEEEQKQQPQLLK

`CC[C@H](C)[C@H](NC(=O)[C@H](Cc1c[nH]cn1)NC(=O)[C@H](C)NC(=O)[C@H](C)NC(=O)[C@H](CO)NC(=O)[C@@H]1CCCN1C(=O)[C@H](CCCNC(=N)N)NC(=O)[C@H](CC(=O)O)NC(=O)[C@H](CCCCN)NC(=O)[C@@H]1CCCN1C(=O)[C@H](CC(=O)O)NC(=O)[C@H](CCC(=O)O)NC(=O)CCCC[C@@H]1SC[C@@H]2NC(=O)N[C@@H]21)C(=O)N[C@H](C(=O)N[C@@H](CCC(=O)O)C(=O)N[C@@H](C)C(=O)N[C@@H](CC(C)C)C(=O)N[C@@H](CCC(=O)O)C(=O)N[C@H](C(=O)N[C@@H](CC(=O)O)C(=O)N[C@H](C(=O)O)C(C)C)[C@@H](C)O)C(C)C` [PDZ-binding kinase (PBK)] (Biotin-EDPKDRPSAAHIVEALETDV-OH; C-terminus assumed): the Kd is 6 µM in assay [1] (PDZ PTPL-1, PDZ Domain 2, read-out: Peptide Optimal Conc (non-zero value: Kd by titration of the PL peptide)) and 7 µM in assay [2] (PDZ KIAA1634, PDZ Domain 2, read-out: Peptide Optimal Conc (non-zero value: Kd by titration of the PL peptide)).
In the case of `CC(C)C[C@H](NC(=O)[C@H](Cc1c[nH]c2ccccc12)NC(=O)[C@H](Cc1c[nH]cn1)NC(=O)[C@H](CCCNC(=N)N)NC(=O)[C@H](CC(C)C)NC(=O)[C@@H](NC(=O)[C@H](Cc1ccccc1)NC(=O)[C@H](CCC(N)=O)NC(=O)[C@H](CCCNC(=N)N)NC(=O)[C@@H](NC(=O)[C@H](CCC(=O)O)NC(=O)CNC(=O)[C@H](CCCNC(=N)N)NC(=O)[C@H](CC(=O)O)NC(=O)[C@@H](NC(=O)[C@H](CC(C)C)NC(=O)[C@H](CCC(=O)O)NC(=O)[C@H](CCCNC(=N)N)NC(=O)CCCC[C@@H]1SC[C@@H]2NC(=O)N[C@@H]21)C(C)C)C(C)C)[C@@H](C)O)C(=O)N[C@@H](CCCCN)C(=O)N[C@H](C(=O)O)C(C)C` [Dopamine transporter (Na+-dependent)] (Biotin-RELVDRGEVRQFTLRHWLKV-OH; C-terminus assumed), the Kd turned out to be 0.4 µM in assay [1] (PDZ PTPL-1, PDZ Domain 4, read-out: Peptide Optimal Conc (Kd by titration of the PL peptide)) and 0.9 µM in assay [2] (PDZ KIAA1634, PDZ Domain 1, read-out: Peptide Optimal Conc (Kd by titration of the PL peptide)).

These data come from patent US20050282743A1, “Molecular interactions in cells” (Arbor Vita Corporation, priority 2001, published 2005).
